In ChEMBL document CHEMBL1914384, “Design, synthesis, and structure-activity relationship studies of highly potent novel benzoxazinyl-oxazolidinone antibacterial agents” (J Med Chem, 2011):
≈ marks a conversion by molar mass, not a printed value.

How the values were obtained:
Enterococcus faecalis [1] = assay: Antibacterial activity against Enterococcus faecalis after 16 hrs by agar dilution method; type: functional
[2] = test system: Staphylococcus epidermidis; assay: Antibacterial activity against methicillin-resistant Staphylococcus epidermidis after 16 hrs by agar dilution method; type: functional
Streptococcus pneumoniae = assay: Antibacterial activity against penicillin-resistant Streptococcus pneumoniae after 16 hrs by agar dilution method; type: functional
Staphylococcus aureus [3] = assay: Antibacterial activity against methicillin-resistant Staphylococcus aureus after 16 hrs by agar dilution method; type: functional
Staphylococcus aureus [4] = assay: Antibacterial activity against Staphylococcus aureus ATCC 29213 after 16 hrs by agar dilution method; type: functional; conditions: ATCC 29213, 16 h
[5] = test system: Staphylococcus epidermidis; assay: Antibacterial activity against Linezolid-resistant Staphylococcus epidermidis after 16 hrs by agar dilution method relative to Linezolid; type: functional
[6] = Oral bioavailability in Sprague-Dawley rat at 15 mg/kg by LC-MS analysis; type: ADME, organism-based; conditions: in vivo
[7] = Half life in Sprague-Dawley rat at 15 mg/kg, po by LC-MS analysis; type: ADME, organism-based; parameters: dose 15 mg/kg, route oral; conditions: in vivo
[8] = test system: Staphylococcus epidermidis; assay: Antibacterial activity against linezolid-resistant Staphylococcus epidermidis after 16 hrs by agar dilution method; type: functional
[9] = Clearance in Sprague-Dawley rat at 15 mg/kg, po by LC-MS analysis; type: ADME, organism-based; parameters: dose 15 mg/kg, route oral; conditions: in vivo
[10] = Cmax in Sprague-Dawley rat at 15 mg/kg, po by LC-MS analysis; type: ADME, organism-based; parameters: dose 15 mg/kg, route oral; conditions: in vivo
Enterococcus faecalis [11] = assay: Antibacterial activity against Linezolid-resistant Enterococcus faecalis after 16 hrs by agar dilution method relative to Linezolid; type: functional
Staphylococcus aureus [12] = assay: Antibacterial activity against linezolid-resistant Staphylococcus aureus after 16 hrs by agar dilution method; type: functional
Enterococcus faecium [13] = assay: Antibacterial activity against Linezolid-resistant Enterococcus faecium after 16 hrs by agar dilution method relative to Linezolid; type: functional
Staphylococcus aureus [14] = assay: Antibacterial activity against methicillin-resistant Staphylococcus aureus ATCC 33591 infected in NSA mouse neutropenic model administered orally 1 hour after infection measured 48 hrs post-treatment relative to Linezolid; type: functional
Staphylococcus aureus [15] = assay: Antibacterial activity against Staphylococcus aureus ATCC 19636 infected in mouse systemic infection model administered orally 1 hour after infection measured 48 hrs of post-treatment; type: functional; conditions: ATCC 19636, po
[16] = Clearance in Sprague-Dawley rat at 15 mg/kg, iv by LC-MS analysis; type: ADME, organism-based; parameters: dose 15 mg/kg, route intravenous; conditions: in vivo
Staphylococcus aureus [17] = assay: Antibacterial activity against methicillin-resistant Staphylococcus aureus ATCC 33591 infected in NSA mouse neutropenic model administered orally 1 hour after infection measured 48 hrs post-treatment; type: functional; conditions: ATCC 33591, po
[18] = Tmax in Sprague-Dawley rat at 15 mg/kg, po by LC-MS analysis; type: ADME, organism-based; parameters: dose 15 mg/kg, route oral; conditions: in vivo
Enterococcus faecalis [19] = assay: Antibacterial activity against linezolid-resistant Enterococcus faecalis after 16 hrs by agar dilution method; type: functional
Staphylococcus aureus [20] = assay: Antibacterial activity against Linezolid-resistant Staphylococcus aureus after 16 hrs by agar dilution method relative to Linezolid; type: functional
[21] = Cmax in Sprague-Dawley rat at 15 mg/kg, iv by LC-MS analysis; type: ADME, organism-based; parameters: dose 15 mg/kg, route intravenous; conditions: in vivo
Enterococcus faecium [22] = assay: Antibacterial activity against linezolid-resistant Enterococcus faecium after 16 hrs by agar dilution method; type: functional
Staphylococcus aureus [23] = assay: Antibacterial activity against Staphylococcus aureus ATCC 19636 infected in mouse systemic infection model administered orally 1 hour after infection measured 48 hrs post-treatment relative to Linezolid; type: functional
[24] = AUC (0 to infinity) in Sprague-Dawley rat at 15 mg/kg, po by LC-MS analysis; type: ADME, organism-based; parameters: time infinity, dose 15 mg/kg, route oral; conditions: plasma

Row | Structure (SMILES) | MIC (Enterococcus faecalis [1]) [µg/mL] | MIC [2] [µg/mL] | MIC (Streptococcus pneumoniae) [µg/mL] | MIC (Staphylococcus aureus [3]) [µg/mL] | MIC (Staphylococcus aureus [4]) [µg/mL] | MIC [8] [µg/mL] | MIC (Staphylococcus aureus [12]) [µg/mL] | MIC (Enterococcus faecium [22]) [µg/mL] | further results
1 | CC(=O)NC[C@@H]1OC(=O)N2c3ccc(-c4ccc(C#N)cc4)cc3OC[C@@H]12 | 1 (≈ 2.75 µM) | 0.5 (≈ 1.38 µM) | 0.5 (≈ 1.38 µM) | 0.5 (≈ 1.38 µM) | 0.25 (≈ 0.688 µM) | – | – | – | –
2 | CC(=O)NC[C@@H]1OC(=O)N2c3ccc(-c4ccc(C(C)=O)cn4)cc3OC[C@@H]12 | 4 (≈ 10.5 µM) | 2 (≈ 5.24 µM) | 2 (≈ 5.24 µM) | 2 (≈ 5.24 µM) | 2 (≈ 5.24 µM) | – | – | – | –
3 | CC(=O)NC[C@@H]1OC(=O)N2c3ccc(-c4ccc(C#N)nc4)cc3OC[C@@H]12 | 0.5 (≈ 1.37 µM) | 0.25 (≈ 0.686 µM) | 0.25 (≈ 0.686 µM) | 0.25 (≈ 0.686 µM) | 0.125 (≈ 0.343 µM) | 1 (≈ 2.74 µM) | 2 (≈ 5.49 µM) | 0.5 (≈ 1.37 µM) | fold change (FC) [5]: 8; bioavailability [6]: 81%; half-life [7]: 5.5 h; CL/F [9]: 3.82 mL/min/kg; Cmax [10]: 5000 ng/mL; fold change (FC) (Enterococcus faecalis [11]): 8; fold change (FC) (Enterococcus faecium [13]): 8; fold change (FC) (Staphylococcus aureus [14]): 3; ED50 (Staphylococcus aureus [15]): 2.5 mg/kg; clearance [16]: 3.07 mL/min/kg; ED50 (Staphylococcus aureus [17]): < 5 mg/kg; Tmax [18]: 4 h; MIC (Enterococcus faecalis [19]): 1 µg/mL (≈ 2.74 µM); fold change (FC) (Staphylococcus aureus [20]): 8; Cmax [21]: 7000 ng/mL; fold change (FC) (Staphylococcus aureus [23]): 4; AUC(0-inf) [24]: 66000 ng·h/mL
4 | CC(=O)NC[C@H]1CN(c2ccc(N3CCOCC3)c(F)c2)C(=O)O1 [LINEZOLID] | – | 1 (≈ 2.96 µM) | – | 1 (≈ 2.96 µM) | 1 (≈ 2.96 µM) | 16 (≈ 47.4 µM) | > 16 | 8 (≈ 23.7 µM) | ED50 (Staphylococcus aureus [15]): 9.5 mg/kg; ED50 (Staphylococcus aureus [17]): 14.1 mg/kg
5 | CC(=O)NC[C@@H]1OC(=O)N2c3ccc(-c4cnc(N)nc4)cc3OC[C@@H]12 | 2 (≈ 5.63 µM) | 1 (≈ 2.81 µM) | 1 (≈ 2.81 µM) | 1 (≈ 2.81 µM) | 1 (≈ 2.81 µM) | – | – | – | –
6 | CC(=O)NC[C@@H]1OC(=O)N2c3ccc(N4CCN(Cc5cccnc5)CC4)cc3OC[C@@H]12 | > 16 | > 16 | > 16 | > 16 | 16 (≈ 36.6 µM) | – | – | – | –
7 | CC(=O)NC[C@@H]1OC(=O)N2c3ccc(-c4ccc(N)nc4)cc3OC[C@@H]12 | 0.5 (≈ 1.41 µM) | 0.5 (≈ 1.41 µM) | 0.5 (≈ 1.41 µM) | 0.5 (≈ 1.41 µM) | 0.5 (≈ 1.41 µM) | 4 (≈ 11.3 µM) | 16 (≈ 45.2 µM) | 2 (≈ 5.64 µM) | MIC (Enterococcus faecalis [19]): 2 µg/mL (≈ 5.64 µM)
8 | CC(=O)NC[C@@H]1OC(=O)N2c3cc(F)c(-c4ccc(C#N)nc4)cc3OC[C@@H]12 | 2 (≈ 5.23 µM) | 1 (≈ 2.62 µM) | 2 (≈ 5.23 µM) | 1 (≈ 2.62 µM) | 2 (≈ 5.23 µM) | – | – | – | –
9 | CC(=O)NC[C@@H]1OC(=O)N2c3ccc(-c4cc(C#N)ccn4)cc3OC[C@@H]12 | 1 (≈ 2.74 µM) | 0.25 (≈ 0.686 µM) | 0.25 (≈ 0.686 µM) | 0.5 (≈ 1.37 µM) | 0.5 (≈ 1.37 µM) | – | – | – | –
10 | CC(=O)NC[C@@H]1OC(=O)N2c3ccc(-c4cncc(C#N)c4)cc3OC[C@@H]12 | 1 (≈ 2.74 µM) | 0.5 (≈ 1.37 µM) | 0.5 (≈ 1.37 µM) | 0.5 (≈ 1.37 µM) | 0.5 (≈ 1.37 µM) | – | – | – | –
